What was measured:
Assay in all cases: relative viability (nuclei count vs DMSO), 5 days (fraction); higher = more cells survive
Wnt-C59 + Foretinib = compound: CC1=NC=CC(=C1)C2=CC=C(C=C2)CC(=O)NC3=CC=C(C=C3)C4=CN=CC=C4 [Wnt-C59] + COc1cc2c(Oc3ccc(NC(=O)C4(C(=O)Nc5ccc(F)cc5)CC4)cc3F)ccnc2cc1OCCCN1CCOCC1 [Foretinib] (partner 0.25 µM)
Method in brief: (§1)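 The day after seeding in 1536-well plates, lung cancer cell lines were treated by pin tool with a single drug, or with a fixed anchor-drug dose together with five library-drug doses (not always all listed) in √10 steps. After 5 days, a combined fix-and-stain solution (final 0.05% Triton X-100, 1% formaldehyde, 1 ug/ml Hoechst) was added. Nuclei counted on 4× images gave relative viability as treated counts over vehicle counts, reported as the median of duplicate plates.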

Wnt-C59 + Crizotinib = compound: CC1=NC=CC(=C1)C2=CC=C(C=C2)CC(=O)NC3=CC=C(C=C3)C4=CN=CC=C4 [Wnt-C59] + C[C@@H](Oc1cc(-c2cnn(C3CCNCC3)c2)cnc1N)c1c(Cl)ccc(F)c1Cl [Crizotinib] (partner 1 µM)
Method in brief: as §1

Wnt-C59 + Vorinostat = compound: CC1=NC=CC(=C1)C2=CC=C(C=C2)CC(=O)NC3=CC=C(C=C3)C4=CN=CC=C4 [Wnt-C59] + O=C(CCCCCCC(=O)Nc1ccccc1)NO [Vorinostat] (partner 1 µM)
Method in brief: as §1

Lapatinib + Alpelisib = compound: CS(=O)(=O)CCNCc1ccc(-c2ccc3ncnc(Nc4ccc(OCc5cccc(F)c5)c(Cl)c4)c3c2)o1 [Lapatinib] + Cc1nc(NC(=O)N2CCC[C@H]2C(N)=O)sc1-c1ccnc(C(C)(C)C(F)(F)F)c1 [Alpelisib] (partner 2 µM)
Method in brief: as §1

Cell Line | relative viability (Wnt-C59 + Foretinib; first compound 0.001 µM) | relative viability (Wnt-C59 + Foretinib; first compound 0.01 µM) | relative viability (Wnt-C59 + Foretinib; first compound 0.03162 µM) | relative viability (Wnt-C59 + Foretinib; first compound 0.1 µM) | relative viability (Wnt-C59 + Crizotinib; first compound 0.001 µM) | relative viability (Wnt-C59 + Crizotinib; first compound 0.01 µM) | relative viability (Wnt-C59 + Crizotinib; first compound 0.03162 µM) | relative viability (Wnt-C59 + Crizotinib; first compound 0.1 µM) | relative viability (Wnt-C59 + Vorinostat; first compound 0.001 µM) | relative viability (Wnt-C59 + Vorinostat; first compound 0.01 µM) | relative viability (Wnt-C59 + Vorinostat; first compound 0.03162 µM) | relative viability (Wnt-C59 + Vorinostat; first compound 0.1 µM) | relative viability (Lapatinib + Alpelisib; first compound 0.06325 µM) | relative viability (Lapatinib + Alpelisib; first compound 0.2 µM) | relative viability (Lapatinib + Alpelisib; first compound 0.6325 µM) | relative viability (Lapatinib + Alpelisib; first compound 2 µM) | relative viability (Lapatinib + Alpelisib; first compound 0.02 µM)
NCI-H441 | 0.977 | 1.05 | 1.01 | 1.04 | 0.731 | 0.906 | 0.805 | 0.615 | 0.786 | 0.867 | 0.806 | 0.887 | 0.65 | 0.68 | 0.617 | 0.799 | –
NCI-H460 | 1.03 | 0.966 | 1.02 | 0.94 | 0.996 | 0.961 | 0.878 | 0.689 | 0.688 | 0.711 | 0.743 | 0.648 | 0.362 | 0.448 | 0.389 | 0.4 | 0.415
NCI-H520 | 0.792 | 0.696 | 0.867 | 0.689 | 0.915 | 0.83 | 0.831 | 0.716 | 0.742 | 0.683 | 0.686 | 0.634 | 0.805 | 0.912 | 1.02 | 0.807 | 0.961
NCI-H596 | 0.885 | 0.899 | 0.835 | 0.898 | 0.972 | 1 | 1.32 | 0.932 | 0.601 | 0.603 | 0.59 | 0.76 | 0.48 | 0.425 | 0.554 | 0.446 | 0.481
NCI-H647 | 1.24 | 0.978 | 1.36 | 1.18 | 1.12 | 1.15 | 1.2 | 0.909 | 0.577 | 0.582 | 0.957 | 0.585 | 0.779 | 1.06 | 1.14 | 1.01 | 1.01
NCI-H650 | 0.956 | 1.07 | 1.07 | 0.947 | 0.699 | 0.75 | 0.874 | 0.691 | 0.45 | 0.449 | 0.464 | 0.448 | 1.04 | 0.998 | 0.953 | 1.2 | –
NCI-H661 | 1 | 0.981 | 1.06 | 0.976 | 1 | 1.05 | 0.981 | 0.948 | 0.815 | 0.726 | 0.854 | 0.755 | 0.637 | 0.468 | 0.45 | 0.36 | 0.646
NCI-H727 | 0.983 | 0.917 | 0.887 | 0.904 | 0.843 | 0.779 | 0.944 | 0.682 | 1.14 | 1.16 | 1.09 | 1.14 | 0.484 | 0.472 | 0.558 | 0.366 | 0.515
NCI-H838 | 1.04 | 0.961 | 1.08 | 1.03 | 0.839 | 0.826 | 0.902 | 0.916 | 0.709 | 0.704 | 0.786 | 0.708 | 0.88 | 1.07 | 0.967 | 0.912 | 1.05
NCI-H1355 | 0.949 | 0.922 | 1.01 | 0.876 | 1.01 | 1.05 | 1.06 | 0.966 | 0.639 | 0.529 | 0.601 | 0.596 | 0.621 | 0.734 | 0.762 | 0.416 | –
NCI-H1437 | 1.31 | 1.28 | 1.29 | 1.26 | 0.996 | 0.867 | 0.988 | 0.89 | 0.838 | 0.806 | 0.829 | 0.8 | 0.869 | 1.02 | 0.864 | 0.866 | 1
NCI-H1651 | 0.985 | 0.734 | 0.858 | 0.758 | 0.856 | 0.855 | 0.854 | 0.864 | 0.557 | 0.6 | 0.597 | 0.63 | 0.827 | 0.897 | 0.828 | 0.932 | 0.919
NCI-H1666 | 0.894 | 0.994 | 0.92 | 0.985 | 0.989 | 1.05 | 0.902 | 1.1 | 0.964 | 1 | 0.913 | 1.05 | 0.835 | 0.671 | 0.485 | 0.244 | 0.744
NCI-H1734 | 0.808 | 0.839 | 0.922 | 0.962 | 0.642 | 0.618 | 0.773 | 0.66 | 0.76 | 0.822 | 0.833 | 0.816 | 0.489 | 0.653 | 0.736 | 0.657 | –
NCI-H1755 | 0.884 | 0.895 | 0.55 | 0.866 | 0.899 | 0.826 | 0.827 | 0.839 | 0.721 | 0.71 | 0.744 | 0.752 | 0.873 | 0.915 | 0.888 | 0.789 | 0.906
NCI-H1915 | 1.12 | 1.03 | 1.16 | 1.09 | 0.771 | 0.852 | 1.02 | 0.912 | 0.487 | 0.492 | 0.629 | 0.526 | 1.05 | 1.08 | 1.03 | 1.02 | –

Cell Line | relative viability (Wnt-C59 + Foretinib; first compound 0.001 µM) | relative viability (Wnt-C59 + Foretinib; first compound 0.01 µM) | relative viability (Wnt-C59 + Foretinib; first compound 0.03162 µM) | relative viability (Wnt-C59 + Foretinib; first compound 0.1 µM) | relative viability (Wnt-C59 + Crizotinib; first compound 0.001 µM) | relative viability (Wnt-C59 + Crizotinib; first compound 0.01 µM) | relative viability (Wnt-C59 + Crizotinib; first compound 0.03162 µM) | relative viability (Wnt-C59 + Crizotinib; first compound 0.1 µM) | relative viability (Wnt-C59 + Vorinostat; first compound 0.001 µM) | relative viability (Wnt-C59 + Vorinostat; first compound 0.01 µM) | relative viability (Wnt-C59 + Vorinostat; first compound 0.03162 µM) | relative viability (Wnt-C59 + Vorinostat; first compound 0.1 µM) | relative viability (Lapatinib + Alpelisib; first compound 0.06325 µM) | relative viability (Lapatinib + Alpelisib; first compound 0.2 µM) | relative viability (Lapatinib + Alpelisib; first compound 0.6325 µM) | relative viability (Lapatinib + Alpelisib; first compound 2 µM) | relative viability (Lapatinib + Alpelisib; first compound 0.02 µM)
NCI-H1944 | 1.02 | 0.701 | 0.841 | 0.867 | 1.04 | 0.971 | 1.18 | 1.07 | 0.621 | 0.552 | 0.57 | 0.621 | – | 0.645 | 0.647 | 0.488 | –
NCI-H1975 | 0.819 | 0.891 | 0.942 | 0.906 | 0.98 | 0.936 | 1.04 | 0.948 | 0.727 | 0.76 | 0.756 | 0.706 | 0.58 | 0.537 | 0.573 | 0.462 | 0.662
NCI-H1993 | 0.81 | – | 0.987 | 0.706 | 0.932 | 0.981 | 0.878 | 1.9 | 0.78 | 0.758 | 0.978 | 0.394 | – | 0.721 | 0.684 | 0.665 | 0.683
NCI-H2009 | 1.26 | 1.21 | 1.22 | 0.819 | 0.941 | 1.11 | 1.06 | 1.03 | 0.722 | 0.679 | 0.758 | 0.712 | 1.16 | 1.16 | 1.16 | 1.12 | 1.12
NCI-H2023 | 1.1 | 0.788 | 1.01 | 0.667 | 0.701 | 0.65 | 0.686 | 0.594 | 0.757 | 0.499 | 0.742 | 0.487 | 0.576 | 0.528 | 0.553 | 0.378 | 0.53
NCI-H2085 | 0.987 | 0.958 | 0.88 | 0.918 | 0.929 | 0.803 | 0.953 | 0.823 | 0.758 | 0.717 | 0.811 | 0.756 | 0.845 | 0.932 | 1 | 0.694 | 0.869
NCI-H2087 | 1.1 | 0.979 | 0.947 | 1.01 | 0.737 | 0.884 | 0.792 | 0.778 | 0.905 | 0.336 | 0.788 | 0.764 | 1.06 | 1.21 | 1.01 | 0.931 | 1.12
NCI-H2126 | 1.2 | 1.11 | 1.05 | 1.25 | 0.994 | 0.998 | 0.987 | 1.01 | 0.841 | 0.62 | 0.788 | 0.76 | 0.587 | 0.668 | 0.677 | 0.549 | –
NCI-H2170 | 0.942 | 0.991 | 1.06 | 1.01 | 1.19 | 1.09 | 1.46 | 1.11 | 0.803 | 0.795 | 0.834 | 0.809 | 0.551 | 0.477 | 0.376 | 0.21 | 0.76
NCI-H2228 | 0.758 | 0.778 | 0.751 | 0.594 | 0.509 | 0.393 | 0.563 | 0.466 | 0.654 | 0.657 | 0.587 | 0.838 | 0.688 | 0.811 | 0.907 | 0.59 | 0.675
NCI-H2347 | 0.625 | 1.13 | 0.985 | 1.08 | 0.673 | 0.598 | 0.612 | 0.653 | 0.649 | 0.644 | 0.572 | 0.717 | 1.01 | 1.07 | 0.844 | 1.02 | 0.901
NCI-H2405 | 1.04 | 0.94 | 0.938 | 0.941 | 0.833 | 0.806 | 0.812 | 0.779 | 1 | 1.05 | 1.15 | 1.17 | 0.609 | 0.733 | 0.781 | 0.689 | –
NCI-H3122 | 0.933 | 0.978 | 0.989 | 0.946 | 0.28 | 0.268 | 0.283 | 0.249 | 1.05 | 1.05 | 0.989 | 0.971 | 0.725 | 0.752 | 0.691 | 0.771 | 0.714
PC-3 [JPC-3] | 1.05 | 1.12 | 1.14 | 1.05 | 0.979 | 1.01 | 1.09 | 0.965 | 0.781 | 0.917 | 0.785 | 1.13 | 1.04 | 1.02 | 0.988 | 0.585 | –
PC-14 | 1.03 | 0.982 | 0.897 | 0.973 | 0.999 | 0.857 | 0.818 | 0.848 | 0.815 | 0.96 | 0.886 | 0.723 | 0.915 | 0.883 | 0.864 | 0.783 | 0.823

Reference: the supplement of paper PMC10307832
